In patent publication US20150225404A1, “PYRIDINE DERIVATIVE AND MEDICINE” (NIPPON SHINYAKU CO., LTD., priority 2012, published 2015):
Counter-ions that a name gives are not always drawn.

What was measured:
human mGluR5 = molecular target: T1, human mGluR5 (Homo sapiens, UniProt P41594); test: Experiment for receptor function of mGluR5 (Ca2+-dependent fluorescence, FLIPR, CHO-K1 cells stably expressing human mGluR5); type: cell-based; details: L-glutamic acid 10 μM, Fluo-4 fluorescence
T1 construct: expressed in transfected cells
T1 sequence (P41594 21-1212): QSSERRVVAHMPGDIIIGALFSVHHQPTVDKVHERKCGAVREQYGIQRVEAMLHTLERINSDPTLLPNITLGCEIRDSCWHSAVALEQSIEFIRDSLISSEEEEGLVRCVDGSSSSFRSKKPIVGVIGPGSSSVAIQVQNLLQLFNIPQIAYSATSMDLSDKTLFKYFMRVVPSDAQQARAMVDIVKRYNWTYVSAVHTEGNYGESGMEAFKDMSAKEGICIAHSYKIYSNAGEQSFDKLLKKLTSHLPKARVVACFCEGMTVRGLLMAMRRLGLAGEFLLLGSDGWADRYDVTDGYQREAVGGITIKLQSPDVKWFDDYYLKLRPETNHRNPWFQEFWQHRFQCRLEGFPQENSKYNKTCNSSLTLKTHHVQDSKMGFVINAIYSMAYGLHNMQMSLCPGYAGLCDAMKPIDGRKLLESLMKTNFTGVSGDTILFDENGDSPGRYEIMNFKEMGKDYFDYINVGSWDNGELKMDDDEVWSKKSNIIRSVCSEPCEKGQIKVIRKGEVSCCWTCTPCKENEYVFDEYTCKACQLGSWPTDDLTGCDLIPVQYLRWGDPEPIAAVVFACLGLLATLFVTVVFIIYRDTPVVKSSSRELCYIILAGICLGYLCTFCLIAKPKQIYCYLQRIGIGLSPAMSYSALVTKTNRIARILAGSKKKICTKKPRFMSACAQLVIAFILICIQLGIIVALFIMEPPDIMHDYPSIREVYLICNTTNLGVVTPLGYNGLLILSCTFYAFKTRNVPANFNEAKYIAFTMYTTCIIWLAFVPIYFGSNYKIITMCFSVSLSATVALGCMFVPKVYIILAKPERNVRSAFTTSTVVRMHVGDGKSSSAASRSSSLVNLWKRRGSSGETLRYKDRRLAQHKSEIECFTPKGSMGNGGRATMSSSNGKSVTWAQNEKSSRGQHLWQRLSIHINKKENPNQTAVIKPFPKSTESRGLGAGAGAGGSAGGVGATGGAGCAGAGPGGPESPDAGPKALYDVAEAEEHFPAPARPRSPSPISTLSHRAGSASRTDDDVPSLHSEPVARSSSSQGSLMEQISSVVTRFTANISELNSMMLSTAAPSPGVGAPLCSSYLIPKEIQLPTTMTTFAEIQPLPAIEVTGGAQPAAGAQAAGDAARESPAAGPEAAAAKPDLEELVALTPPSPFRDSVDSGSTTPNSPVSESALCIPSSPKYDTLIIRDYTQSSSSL
How it was run: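 Fluo-4-loaded CHO-K1 cells pre-incubated 2 min with test substance, then stimulated with L-glutamic acid (final 10 μM) in HBSS, pH 7.4. FLIPR Ca2+ fluorescence normalized to glutamate alone (100%) and glutamate with 10 μM MPEP (0%); IC50 estimated by logistic fit.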

male Slc:ICR mice [1] = test: Action against formalin-induced pain behavior in mice; type: in vivo; details: Mus musculus, iv, 0.1 h, 6 minutes observation, read-out: Percent inhibition of pain-related behavior time (%); for inhibition in vivo at 1 mg/kg: test substance 1 mg/kg intravenously
Protocol: 4 to 6-week-old male Slc:ICR mice (available from Japan SLC, Inc.) were used. A medium or a test substance (1 mg/kg or 3 mg/kg) was intravenously administered to each mouse, and immediately thereafter, 20 μL of 1% or 5% formalin was subcutaneously administered to a right hind paw of the mouse. Thereafter, the mice were quickly put into an observation cage and measured for the total time (sec) of pain-related behavior (licking or biting behavior against the right hindlimb) during 6 minutes, and an average value of the pain-related behavior time of each group was calculated.
The intensity of an analgesic action of the test substance was evaluated in terms of percent inhibition (%) of pain-related behavior time which is calculated as {(A−B)/A×100}, wherein A is an average value of the pain-related behavior time of a medium-administered group, and B is an average value of the pain-related behavior time of a test substance-administered group.

male Slc:ICR mice [2] = test: Action against pain-related behavior and micturition cycle in mice with cyclophosphamide (CP)-induced acute cystitis; type: in vivo; details: Mus musculus, iv, 0.25 h, CP 300 mg/kg i.p., 15 minutes observation; for inhibition in vivo at 1 mg/kg: test substance 1 mg/kg intravenously 3 hours after CP; for inhibition in vivo at 3 mg/kg: test substance 3 mg/kg intravenously 3 hours after CP
Protocol: An action of a test substance against visceral pain and frequent urination associated with cystitis, which was induced by intraperitoneal administration (20 mL/kg) of CP (300 mg/kg) to 4 to 5-week-old male Slc:ICR mice (available from Japan SLC, Inc.), was investigated. This experiment was performed according to a method described in European Journal of Pharmacology, 676 (2012), pp. 75-80.
Three hours after the administration of CP, a test substance (1 mg/kg or 3 mg/kg) was intravenously administered, and observation by visual inspection and video recording were performed for 15 minutes immediately thereafter. In the observation by visual inspection, four pain-related behaviors (eye opening, rounded back, leg dragging, and behavior during urination) were scored, each rated on a scale of 0-10, according to the following criteria.
Eye opening (normal: 0 point, sometimes closed or half-open eyes: 5 points, completely closed: 10 points)
Rounded back (normal: 0 point, sometimes crouched: 5 points, crouched at almost all times: 10 points)
Leg dragging (normal: 0 point, leg dragging: 10 points)
Behavior during urination (normal: 0 point, shaking hip in micturition: 10 points)
In addition, the video was played back, and the frequency of licking behavior around the abdomen as a pain-related behavior was scored, rated on a scale of 0-10, according to the following criteria.
Licking behavior around the abdomen (0 to 3 times: 0 point, 4 times to 10 times: 5 points, 11 times or more: 10 points)
Furthermore, the video was played back, and the frequency of urination (urination marks) on a filter paper was counted and taken as an index for micturition cycle.
An average value of the pain-related behavior score of each group (total score of the five items: 50 points at maximum) and an average value of the frequency of urination (urination marks) on the filter paper were determined.
The strength of an analgesic action of the test substance against the CP-induced visceral pain was evaluated in terms of percent inhibition (%) of pain-related behavior score which is calculated as {(A−B)/A×100}, wherein A is an average value of the pain-related behavior score of a medium-administered group, and B is an average value of the pain-related behavior score of a test substance-administered group.
In addition, the strength of a frequent urination inhibitory action of the test substance against the CP-induced frequent urination was evaluated in terms of percent inhibition (%) of the frequency of urination which is calculated as {(C−D)/C×100}, wherein C is an average value of the frequency of urination of a medium-administered group, and D is an average value of the frequency of urination of a test substance-administered group.

[3] = read-out: Percent inhibition of pain-related behavior score (%)
[4] = read-out: Percent inhibition of the frequency of urination (%)

| SMILES | IC50 (human mGluR5) [nM] | inhibition in vivo at 1 mg/kg (male Slc:ICR mice [1]; 1% formalin) [%] | inhibition in vivo at 1 mg/kg (male Slc:ICR mice [1]; 5% formalin) [%] | other results |
| --- | --- | --- | --- | --- |
| N#Cc1ncccc1-c1cc(OCc2ccccn2)nc2c1CCC2 [Example 3, 3-[2-(Pyridin-2-ylmethoxy)-6,7-dihydro-5H-cyclopenta[b]pyridin-4-yl]pyridine-2-carbonitrile] | 12 | 25.1 | – | – |
| N#Cc1ccc(-c2cc(OCc3ccc(F)cn3)nc3c2CCC3)cn1 [Example 9, 5-{2-[(5-Fluoropyridin-2-yl)methoxy]-6,7-dihydro-5H-cyclopenta[b]pyridin-4-yl}pyridine-2-carbonitrile] | – | – | 39.1 | inhibition in vivo at 1 mg/kg (male Slc:ICR mice [2]; [3]): 23.9%; inhibition in vivo at 1 mg/kg (male Slc:ICR mice [2]; [4]): 36.3% |
| c1cnc(COc2cc(-c3cccnc3)c3c(n2)CCCC3)nc1 [Example 90, 4-(Pyridin-3-yl)-2-(pyrimidin-2-ylmethoxy)-5,6,7,8-tetrahydroquinoline] | 152 | – | 54.3 | – |
| c1ncc(-c2cc(OCc3ncco3)nc3c2CCCC3)cn1 [Example 165, 2-(1,3-Oxazol-2-ylmethoxy)-4-(pyrimidin-5-yl)-5,6,7,8-tetrahydroquinoline] | 37.9 | 52.3 | – | – |
| Cc1ncc(-c2cc(OCc3ncccc3F)nc3c2CCCC3)cn1 [Example 187, 2-[(3-Fluoropyridin-2-yl)methoxy]-4-(2-methylpyrimidin-5-yl)-5,6,7,8-tetrahydroquinoline] | 36 | – | 59.4 | inhibition in vivo at 1 mg/kg (male Slc:ICR mice [2]; [3]): 22.9%; inhibition in vivo at 1 mg/kg (male Slc:ICR mice [2]; [4]): 51.6% |
| N#Cc1nccnc1-c1cc(OCc2ccccn2)nc2c1CCCC2 [Example 198, 3-[2-(Pyridin-2-ylmethoxy)-5,6,7,8-tetrahydroquinolin-4-yl]pyrazine-2-carbonitrile hydrochloride] | 56.3 | 24.7 | – | inhibition in vivo at 3 mg/kg (male Slc:ICR mice [2]; [3]): 40.4%; inhibition in vivo at 3 mg/kg (male Slc:ICR mice [2]; [4]): 37.6% |
| OCc1cncc(-c2cc(OCc3ccc(F)cn3)nc3c2CCCC3)n1 [Example 216, (6-{2-[(5-Fluoropyridin-2-yl)methoxy]-5,6,7,8-tetrahydroquinolin-4-yl}pyrazin-2-yl)methanol] | – | – | 41.2 | inhibition in vivo at 3 mg/kg (male Slc:ICR mice [2]; [3]): 28.2%; inhibition in vivo at 3 mg/kg (male Slc:ICR mice [2]; [4]): 30.1% |
| OCc1ncc(-c2cc(OCc3ccccn3)nc3c2CCCC3)s1 [Example 226, {5-[2-(Pyridin-2-ylmethoxy)-5,6,7,8-tetrahydroquinolin-4-yl]-1,3-thiazol-2-yl}methanol hydrochloride] | 52.1 | 26.8 | – | – |
| COCc1ncc(-c2cc(OCc3ccccn3)nc3c2CCCC3)s1 [Example 227, 4-[2-(Methoxymethyl)-1,3-thiazol-5-yl]-2-(pyridin-2-ylmethoxy)-5,6,7,8-tetrahydroquinoline] | 36.2 | 25.6 | – | – |
| c1ccc(COc2cc(-c3cncnc3)c3c(n2)CCCCC3)nc1 [Example 233, 2-(Pyridin-2-ylmethoxy)-4-(pyrimidin-5-yl)-6,7,8,9-tetrahydro-5H-cyclohepta[b]pyridine hydrochloride] | 10.9 | 59.5 | – | – |
| N#Cc1ccc(-c2cc(OCc3ncc(F)cc3F)nc3c2CCC3)cn1 [Example 246, 5-{2-[(3,5-Difluoropyridin-2-yl)methoxy]-6,7-dihydro-5H-cyclopenta[b]pyridin-4-yl}pyridine-2-carbonitrile] | 42 | – | 22.8 | – |
| Fc1ccc(COc2cc(-c3cncnc3)c3c(n2)CCC3)cc1 [Example 257, 2-[(4-Fluorobenzyl)oxy]-4-(pyrimidin-5-yl)-6,7-dihydro-5H-cyclopenta[b]pyridine] | 63.5 | – | 51.1 | – |
| Cc1ncc(-c2cc(OCc3ccc(F)cc3)nc3c2CCC3)cn1 [Example 260, 2-[(4-Fluorobenzyl)oxy]-4-(2-methylpyrimidin-5-yl)-6,7-dihydro-5H-cyclopenta[b]pyridine] | 79 | – | 42.9 | – |
| Fc1cccnc1COc1cc(-c2cccnn2)c2c(n1)CCC2 [Example 272, 2-[(3-Fluoropyridin-2-yl)methoxy]-4-(pyridazin-3-yl)-6,7-dihydro-5H-cyclopenta[b]pyridine] | 117 | – | 40.5 | – |
| Fc1cnc(COc2cc(-c3cncnc3)c3c(n2)CCCC3)c(F)c1 [Example 277, 2-[(3,5-Difluoropyridin-2-yl)methoxy]-4-(pyrimidin-5-yl)-5,6,7,8-tetrahydroquinoline] | – | – | 60.9 | inhibition in vivo at 3 mg/kg (male Slc:ICR mice [2]; [3]): 40.4%; inhibition in vivo at 3 mg/kg (male Slc:ICR mice [2]; [4]): 24.8% |

Further compounds by falling IC50 (human mGluR5), results first:

| IC50 (human mGluR5) [nM] | SMILES | inhibition in vivo at 1 mg/kg (male Slc:ICR mice [1]; 1% formalin) [%] | inhibition in vivo at 1 mg/kg (male Slc:ICR mice [1]; 5% formalin) [%] | other results |
| --- | --- | --- | --- | --- |
| 304 | [O-][n+]1cncc(-c2cc(OCc3ccccn3)nc3c2CCCC3)c1 [Example 231, 4-(1-Oxidopyrimidin-5-yl)-2-(pyridin-2-ylmethoxy)-5,6,7,8-tetrahydroquinoline] | – | 66.1 | – |
| 161 | N#Cc1ncc(-c2cc(OCc3ccccn3)nc3c2CCCC3)cn1 [Example 173, 5-[2-(Pyridin-2-ylmethoxy)-5,6,7,8-tetrahydroquinolin-4-yl]pyrimidine-2-carbonitrile hydrochloride] | – | 65.4 | inhibition in vivo at 3 mg/kg (male Slc:ICR mice [2]; [3]): 63.3%; inhibition in vivo at 3 mg/kg (male Slc:ICR mice [2]; [4]): 52.6% |
| 153 | c1ccc(COc2cc(-c3cccnc3)c3c(n2)CCCC3)nc1 [Example 82, 4-(Pyridin-3-yl)-2-(pyridin-2-ylmethoxy)-5,6,7,8-tetrahydroquinoline] | – | – | inhibition in vivo at 3 mg/kg (male Slc:ICR mice [1]; 1% formalin, test substance 3 mg/kg intravenously): 59.8% |
| 73.6 | Fc1cccnc1COc1cc(-c2cncnc2)c2c(n1)CCC2 [Example 26, 2-[(3-Fluoropyridin-2-yl)methoxy]-4-(pyrimidin-5-yl)-6,7-dihydro-5H-cyclopenta[b]pyridine] | 71.9 | – | inhibition in vivo at 3 mg/kg (male Slc:ICR mice [2]; [3]): 60.5%; inhibition in vivo at 3 mg/kg (male Slc:ICR mice [2]; [4]): 57.3% |
| 39 | N#Cc1cccc(COc2cc(-c3cncnc3)c3c(n2)CCC3)c1 [Example 23, 3-({[4-(Pyrimidin-5-yl)-6,7-dihydro-5H-cyclopenta[b]pyridin-2-yl]oxy}methyl)benzonitrile] | – | 47.9 | – |
| 27.9 | c1ncc(-c2cc(OCc3nccs3)nc3c2CCCC3)cn1 [Example 164, 4-(Pyrimidin-5-yl)-2-(1,3-thiazol-2-ylmethoxy)-5,6,7,8-tetrahydroquinoline] | 42.2 | – | – |
| 23 | CC1CCc2c(-c3cncnc3)cc(OCc3ccccn3)nc21 (stereo not drawn) [Example 238, 7-Methyl-2-(pyridin-2-ylmethoxy)-4-(pyrimidin-5-yl)-6,7-dihydro-5H-cyclopenta[b]pyridine] | – | 77.9 | – |
| 5.26 | Fc1ncccc1-c1cc(OCc2ccccn2)nc2c1CCC2 [Example 2, 4-(2-Fluoropyridin-3-yl)-2-(pyridin-2-ylmethoxy)-6,7-dihydro-5H-cyclopenta[b]pyridine hydrochloride] | 47 | – | – |
